pIC50: −log10 of the molar value.
What was measured:
[1] = target: T1, TAAR5 (Homo sapiens, UniProt O14804); assay: Dose responses on TAAR5 in luciferase assay (antagonist dose-dependent inhibition with TMA at EC80; TMA dose response with antagonist at IC10, IC30, IC50); format: cell-based; design: TAAR open reading frames were amplified from pooled human genomic DNA using Phusion polymerase and subcloned into a pCI expression vector; Rho tag (first 20 residues of human rhodopsin); expressed in transfected cells; host or cells: Hana3A cells; settings: TAAR5 luciferase
T1 sequence (O14804 1-337): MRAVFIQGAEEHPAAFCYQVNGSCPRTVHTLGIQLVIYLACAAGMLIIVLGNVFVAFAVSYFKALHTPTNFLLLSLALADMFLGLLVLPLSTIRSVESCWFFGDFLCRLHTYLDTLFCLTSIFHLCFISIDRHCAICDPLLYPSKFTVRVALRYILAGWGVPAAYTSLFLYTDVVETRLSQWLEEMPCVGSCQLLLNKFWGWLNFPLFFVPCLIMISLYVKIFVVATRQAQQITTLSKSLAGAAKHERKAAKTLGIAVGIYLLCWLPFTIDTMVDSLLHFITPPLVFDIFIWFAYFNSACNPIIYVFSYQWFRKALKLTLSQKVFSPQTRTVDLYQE
From the text: (§1) We screened a TAAR of interest, TAAR5, with the agonist TMA added at the EC80 concentration, against a proprietary small-molecule library to identify antagonists. TAAR open reading frames were amplified from pooled human genomic DNA using Phusion polymerase and subcloned into a pCI expression vector (Promega) containing the first 20 residues of human rhodopsin (Rho tag). The sequences of the cloned receptors were verified by sequencing (3730xl Sequencer, ABI Biosystems). We used the Dual-Glo™ Luciferase Assay System (Promega) to measure receptor responses as previously described in Trimmer, C. et al 2014 High-throughput Analysis of Mammalian Olfactory Receptors: Measurement of Receptor Activation via Luciferase Activity. Journal of Visualized Experiments, (88). doi:10.3791/51640. Hana3A cells were transfected with 5 ng/well of RTP1S, 5 ng/well of pRL-SV40, 10 ng/well of CRE-luciferase, 2.5 ng/well of M3, and 5 ng/well of odorant receptor. 1M odorant stocks were diluted in DMSO. 24 hours following transfection, transfection media was removed and replaced with the appropriate concentration of odor diluted from the 1M stocks in CD293 (Gibco). Four hours following odor stimulation luminescence was measured using a Synergy 2 plate reader (Biotek). All luminescence values were divided by the Renilla Luciferase activity to control for transfection efficiency in a given well.
In a secondary experiment, we ran dose dependent inhibition responses for the top twelve antagonists, i.e., the top 12 compounds identified in FIG. 4. TMA was kept at the EC80 (500 μM) and the twelve antagonists were diluted in a dose response with the highest concentration at 1000 μM. The top five candidate compounds, i.e., phenethyl benzoate, trans-2-nonen-1-ol, isoeugenyl phenlacetate, tributyl-2-acetylcitrate, bis(2-methyl-3-furyl)disulfide, were rescreened using an antagonist dose response at 2500 μM. We determined the IC80 values for those five antagonists. Using those IC80 values, we completed a 3-fold dilution dose response of TMA, starting at 3000 μM, in the presence of our five candidate antagonists. […] It was difficult to determine if the five antagonists were competitive or non-competitive inhibitors using the very high IC80 concentrations of the antagonists.
In another experiment, we evaluated dose responses of TMA in the presence of the antagonist at their IC10, IC30 and IC50 concentrations.

[2] = test system: human perception of TMA odor ("fishy"); assay: Human perceptual ratings of fishiness of TMA with antagonist or control odor (air-dilution olfactometer); format: in vivo; settings: human subjects, TMA 3 mM, 1 mM, 0.33 mM, odors intensity-balanced to 1 mM TMA
Procedure: We evaluated the efficacy of the in vitro antagonists on human perception. We asked 10 (FIG. 5A) or 29 (FIG. 5B) subjects to rate how “fishy” and how “pleasant” an odor was. The odors were delivered to the subject using an air-dilution olfactometer (Lundström, J. N., et al., 2010 International Journal of Psychophysiology, 78(2), 179-189; doi:10.1016/j.ijpsycho.2010.07.007) and each trial consisted of one concentration of trimethylamine (either 3 mM, 1 mM, 0.33 mM, or a water blank) combined with either an antagonist or a solvent blank. Subjects used a general labeled magnitude scale to rate how “fishy” the odor smelled and a scale from −10 to +10 to rate the pleasantness.
The antagonists and control odors were intensity-balanced to match the 1 mM concentration of TMA. Trans-2-nonen-1-ol was diluted in Diethyl phthalate (DEP); TMA was diluted in water with NaOH added; Linalool was diluted in DEP. In all trials subjects received air from jars containing water and DEP so that solvent presence could not be used as a cue to the presence of the test odor.

[3] = target: T1, TAAR5; assay: Antagonist screen of odor library on TAAR5 with agonist TMA (Dual-Glo luciferase assay, Hana3A cells); format: cell-based; design: TAAR open reading frames were amplified from pooled human genomic DNA using Phusion polymerase and subcloned into a pCI expression vector; Rho tag (first 20 residues of human rhodopsin); expressed in transfected cells; host or cells: Hana3A cells; settings: inhibition of TMA/TAAR5 response; test odor at 30 μM; TMA at EC80; read-out: Percent Inhibition
Procedure: as §1, with “The sequences of the cloned receptors were verified by sequencing (3730xl Sequencer, ABI Biosystems). We used the Dual-Glo™ Luciferase Assay System (Promega) to measure receptor responses as previously described in Trimmer, C. et al 2014 High-throughput Analysis of Mammalian Olfactory Receptors: Measurement of Receptor Activation via Luciferase Activity. Journal of Visualized Experiments, (88). doi:10.3791/51640.” left out
We completed an antagonist screen of a proprietary library of odors, including the 52 odorous compounds identified in FIG. 4 at a concentration of 30 μM.

[4] = test system: human perception of TMA odor (mixture suppression); assay: Split-nostril experiment, physical vs dichorhinic mixtures with TMA; format: in vivo; settings: human subjects, TMA with probe odorant
From the text: Mixture suppression has both a central and peripheral component (Laing, D., & Willcox, M. (1987). An investigation of the mechanisms of odor suppression using physical and dichorhinic mixtures. Behavioural Brain Research, 26(2-3), 79-87. http://doi.org/10.1016/0166-4328(87)90157-4). […] To test this we carried out split-nostril experiments using stimuli in glass jars. We compared TMA-alone, TMA mixed with the probe odorant in the same nostril (physical mixture), and TMA mixed with the probe odorant in different nostrils (dichorhinic mixture) (FIG. 7). […] Subjects were instructed to make intensity judgements during inhalation to avoid retronasal contamination across nostrils. This allowed us to separate central and peripheral components of the mixture suppression.

[5] = target: T1, TAAR5; settings: cited from earlier work

Structure (SMILES) | pIC50 ([1]; vs TMA, highest of the three concentrations in FIG. 2, read-out: IC50 concentration of antagonist) | IC10 concentration of antagonist ([1]; vs TMA, lowest of the three concentrations in FIG. 2) [µM] | IC30 concentration of antagonist ([1]; vs TMA, middle of the three concentrations in FIG. 2) [µM] | effect on perceived fishy rating of TMA ([2]; listed as Trans-2-nonen-1-ol) | effect on perceived fishy rating of TMA ([2]; listed as trans-2-nonen-1-ol) | inhibition at 30 µM [3] [%] | peripheral component of mixture suppression [4] | EC80 of agonist on TAAR5 [1] [µM] | activation of human TAAR5 [5]
CCCCCC/C=C/CO [Trans-2-Nonen-1-ol] | 3.15 | 100 | 316.22 | significantly decreased the perceived fishy rating | decreases fishy intensity | 89.3 | larger peripheral component of mixture suppression than the control odorant linalool |  | 
CN(C)C [TMA, trimethylamine, reference compound] |  |  |  |  |  |  |  | 500 | activated in a concentration-dependent manner
